Results from patent publication US20220204473A1, “COMPOUND AS IRAK INHIBITOR” (SHANGHAI MEIYUE BIOTECH DEVELOPMENT CO., LTD., priority 2018, published 2022).

How the values were obtained:
human IRAK4 = biological target: T1, human IRAK4 (Homo sapiens, UniProt Q9NWZ3); experiment: IRAK4 MSA (Mobility-Shift Assay) at Km ATP; format: biochemical; settings: GST-IRAK4 1 nM, ATP 37 μM (Km); read-out: IC50 for inhibiting human IRAK4 kinase
T1 construct: purchased Cama (so in the source)
T1 sequence (Q9NWZ3 1-460): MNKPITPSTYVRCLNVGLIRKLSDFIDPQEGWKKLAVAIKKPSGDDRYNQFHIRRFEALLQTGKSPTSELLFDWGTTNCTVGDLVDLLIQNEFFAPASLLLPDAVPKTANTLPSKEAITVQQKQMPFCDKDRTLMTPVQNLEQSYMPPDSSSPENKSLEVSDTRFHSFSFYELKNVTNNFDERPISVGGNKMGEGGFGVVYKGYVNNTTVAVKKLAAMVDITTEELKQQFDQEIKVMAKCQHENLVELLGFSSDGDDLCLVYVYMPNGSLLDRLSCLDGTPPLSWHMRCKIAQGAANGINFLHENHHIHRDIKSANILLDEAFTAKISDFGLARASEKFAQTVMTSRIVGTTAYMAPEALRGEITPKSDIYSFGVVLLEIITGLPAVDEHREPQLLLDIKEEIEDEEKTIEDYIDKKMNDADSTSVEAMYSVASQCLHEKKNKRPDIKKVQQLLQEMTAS
Description: A recombinant fusion protein of N-terminal GST (glutathione-S-transferase) and human IRAK4 was used as enzyme (GST-IRAK4, kinase IRAK4 (Cama)) at a final concentration of 1 nM; ATP (Sigma) was at a final concentration of 37 μM; the substrates used for the kinase reaction were a 5-FAM (5-carboxyfluorescein)-labeled polypeptide (5-FAM-[…]-COOH) and a substrate peptide FAM-P8 (GL Biochem) at final concentrations of […].
In this assay, 500 μM solutions of the compounds were prepared in 100% DMSO, and serially 4-fold diluted to the 10th concentration gradient with 100% DMSO, followed by a 10-fold dilution in the compound buffer (50 mM HEPES. pH 7.5, 0.00015% Brij-35) to give intermediate dilutions of the compounds at a final concentration of 10 μM-0.04 nM containing 10% DMSO respectively, 5 μL of the dilutions were transferred into a black 384-well plate respectively.
IRAK4 was diluted to 2.5 nM in the kinase buffer (50 mM HEPES, pH 7.5, 0.00015% Brij-35, 2 mM DTT). 10 μL of the IRAK4 dilution was transferred to the 384-well plate and co-incubated with the compound for 10-15 min.
The substrate and ATP were diluted to 12.5 μM and 92.5 μM with reaction buffer (50 mM HEPES, pH 7.5, 0.00015% Brij-35, 10 mM MgCl2), respectively. 10 μL of the dilutions were transferred to a 384-well plate and incubated at 28° C. for 1 h respectively. The reaction was terminated by adding 25 μL of 50 mM EDTA to the 384-well plate.
The inhibition rates of IRAK4 by the compounds were calculated by measuring the rate of phosphorylated substrate using a Caliper EZ Reader (PerkinElmer) and the IC50 values were calculated by XL-fit software.

[1] = system: IL-6 release in LPS-induced Balb/c female mice; experiment: Inhibition of IL-6 release in LPS-induced Balb/c female mice; format: in vivo, mouse; design: concentration or dose not given beside the values; settings: administered 5 h before LPS induction, serum
Description: Objective of the test: To determine the inhibitory effect of the compounds by measuring the plasma IL-6 concentration in a Balb/c mouse model with LPS-induced inflammation.
2.1 Prepared mouse serum samples (sample batch no. 20181218)
4.1 Reagent kit was equilibrated at room temperature (25-28° C.) for 20 min. After each detection, the remaining reagents were stored at 4° C.
4.3 Preparing reference standard: 1 vial of reference standard substance was added with labeled volume of reference standard diluent. The mixtures were incubated for 15 min at room temperature. Then the mixtures were gently mixed to completely dissolve the substance to prepare a reference standard stock at a final concentration of 1000 μg/mL.
4.4 Dilution of samples: The sample in each group was diluted by […], i.e., a 2-fold dilution with sample assay buffer followed by another two-fold dilution with standard diluent.
4.5 The diluted samples or standards of different concentrations were added into corresponding wells at 100 μL/well respectively, and a background correcting well (or a blank well) was set by adding only TMB buffer and terminating solution. The wells were sealed with a transparent film and incubated at room temperature for 120 min.
4.6 The plate was subjected to 5 washes, each with 300 μL of washing buffer for 15-30 sec. The plate was dried on thick absorbent paper after the last wash.
4.7 Biotinylated antibody was added at 100 μL/well (Note: the biotinylated antibody was prepared in advance and could be used directly without further dilution). The wells were sealed with a transparent film and incubated at room temperature for 60 min.
4.8 The plate was subjected to 5 washes, each with 300 μL of washing buffer for 15-30 sec. The plate was dried on thick absorbent paper after the last wash.
4.9 Horseradish peroxidase-labeled streptavidin was added at 100 μL/well. The wells were sealed with a white film and incubated away from light at room temperature for 20 min.
4.10 The plate was subjected to 5 washes, each with 300 μL of washing buffer for 15-30 sec. The plate was dried on thick absorbent paper after the last wash.
4.11 The chromogenic reagent TMB was added 100 μL/well. The wells were sealed with a white film and incubated away from light at room temperature for 20 min.
4.12 The terminating solution was added at 50 μL/well and A450 value was measured right after mixing.

[2] = system: TNF-α release in LPS-induced Balb/c female mice; experiment: Inhibition of TNF-α release in LPS-induced Balb/c female mice; format: in vivo, mouse; design: concentration or dose not given beside the values; settings: oral gavage 5 h before LPS induction, serum 1.5 h after stimulation
Description: In the normal control groups, the animals received an intraperitoneal injection of normal saline (10 mL/kg) and in the model groups, the animals received LPS stimulation (Sigma CAT #L2630, i.p., 10 mL/kg, 0.2 mg/kg). During the assay, to the test compounds, DMSO, Solutol and 10 mM PBS were sequentially added to prepare a solution or suspension of required concentration for administration. For the vehicle, DMSO, Solutol and 10 mM PBS were mixed in a volume ratio of 5:15:80. In each of the groups, the animals were administered through oral gavage (10 mL/kg) 5 h before LPS (or saline) stimulation at predetermined doses, and euthanized with CO2 at 1.5 h after the stimulation for cardiac blood collection. The whole blood was not anticoagulated, incubated in wet ice for 1.5 h, and centrifuged at 2000×g at 4° C. for 10 min to separate the serum. The serum was frozen at −80° C. for TNF-α assay. Quantification of the TNF-α was done with TNF-α ELISA kit according to the manufacturer's instruction.

[3] = Stability in rat liver microsomes; format: in vitro ADME; settings: pH 7.4, ∞ = no obvious metabolism found during assay, read-out: Stability test in liver microsomes t1/2, Rat
Description: (§1) 1. Preparation of buffer C:
(§2) Buffer A: 1.0 L of 0.1 M monopotassium phosphate buffer (containing 1.0 mM EDTA);
(§3) Buffer A: 1.0 L of 0.1 M dipotassium phosphate buffer (containing 1.0 mM EDTA);
(§4) Buffer C: Buffer A was added to 700 mL of buffer B until pH reached 7.4.
(§5) The test compound and the reference were separately dissolved in DMSO to give 10 mM stocks.
(§6) 500 μM solution: 10 μL of 10 mM stock solution was added to 190 μL of acetonitrile;
(§7) 1.5 μM dosing solution (in liver microsome solution):
(§8) 18.75 μL of 20 mg/mL liver microsomes were added to 479.75 μL of buffer C, followed by 1.5 μL of 500 μM solution. The mixture was gently shaken to mix well.
(§9) NADPH was weighed, to which an appropriate amount of buffer C was added to prepare a 6 mM NADPH solution.
(§10) 5. 30 μL of 1.5 μM dosing solution was added to wells of a 96-well plate set for different time points (0 min, 5 min, 15 min, 30 min, 45 min) in duplicate.
(§11) 6. Preparation of 0 min samples: 135 μL of acetonitrile (containing internal standard) was added to the 0 min wells, followed by 15 μL of 6 mM NADPH solution.
(§12) 7. The 96-well plate containing 1.5 μM dosing solution and NADPH solution were preheated for 5 min in a water bath at 37° C.
(§13) 8. 15 μL of pre-heated 6 mM NADPH solution was added to wells set for 5 min, 15 min, 30 min and 45 min to start the reaction.
(§14) 9. At time points of 5 min, 15 min, 30 min and 45 min, the reaction was terminated by adding 135 μL of acetonitrile (containing internal standard). The mixtures were vortexed for 10 min and centrifuged at 5594×g for 15 min (Thermo Multifuge×3R).
(§15) 10. 50 μL of the supernatant was transferred to wells of a 96-well plate containing 50 μL of water. The samples were mixed and finally subjected to LC-MS/MS analysis.

[4] = Stability in mouse liver microsomes; format: in vitro ADME; settings: ∞ = no obvious metabolism found during assay
Description: as §1, §2, §3, §4, §5, §6, §7, §8, §9, §10, §11, §12, §13, §14, §15

[5] = Stability in human liver microsomes; format: in vitro ADME; settings: ∞ = no obvious metabolism found during assay
Description: as §1, §2, §3, §4, §5, §6, §7, §8, §9, §10, §11, §12, §13, §14, §15

CYP2C19 = biological target: T2, CYP2C19 (Homo sapiens, UniProt P33261); experiment: CYP450 inhibition in human liver microsomes, CYP2C19; format: in vitro ADME
T2 construct: tissue Corning (USA); host or cells: mixed human liver microsomes
T2 sequence (P33261 whole entry): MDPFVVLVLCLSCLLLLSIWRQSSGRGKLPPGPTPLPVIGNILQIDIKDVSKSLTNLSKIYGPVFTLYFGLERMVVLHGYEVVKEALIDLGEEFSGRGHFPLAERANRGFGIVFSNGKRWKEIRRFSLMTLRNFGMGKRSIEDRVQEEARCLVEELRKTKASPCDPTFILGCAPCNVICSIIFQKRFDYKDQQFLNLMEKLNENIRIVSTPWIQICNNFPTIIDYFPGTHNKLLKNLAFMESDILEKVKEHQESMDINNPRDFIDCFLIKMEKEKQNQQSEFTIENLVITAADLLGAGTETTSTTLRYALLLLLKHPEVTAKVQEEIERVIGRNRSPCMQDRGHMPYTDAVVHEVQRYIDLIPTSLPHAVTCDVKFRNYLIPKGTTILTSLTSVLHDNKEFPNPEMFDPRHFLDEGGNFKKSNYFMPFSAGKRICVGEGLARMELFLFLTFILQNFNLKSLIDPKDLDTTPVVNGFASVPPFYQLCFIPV
Description: (§16) This study was intended to investigate the inhibitory effect of the test compounds on five major CYP450 enzyme subtypes CYP1A2, 2C9, 2C19, 2D6 and 3A4 in human liver microsomes. The mixed human liver microsomes used in this assay were purchased from Corning (USA). The test compounds were co-incubated at 7 concentrations with human liver microsomes and five probe substrates (phenacetin for CYP1a2, diclofenac for CYP2C9, mephenytoin for CYP2C19, dextromethorphan for CYP2D6, midazolam for CYP3A4-M, mixed). The reaction was initiated by adding coenzyme NADPH, and terminated by adding acetonitrile containing internal standard. After the proteins were precipitated, the supernatant was centrifuged. The characteristic metabolites in the supernatant (acetaminophen for CYP1A2, 4-hydroxydiclofenac for CYP2C9, 4-hydroxymephenytoin for CYP2C19, dextrorphan for CYP2D6, 1-hydroxymidazolam for CYP3A4-M) were analyzed by LC-MS/MS. The influence of the test compounds on production of the characteristic metabolites was finally analyzed on the basis of the data obtained. A selective inhibitor (ketoconazole for CYP3A4-M) was used as positive control. All samples were tested in duplicate.

CYP1A2 = biological target: T3, CYP1A2 (Homo sapiens, UniProt P05177); experiment: CYP450 inhibition in human liver microsomes, CYP1A2; format: in vitro ADME
T3 construct: tissue Corning (USA); host or cells: mixed human liver microsomes
T3 sequence (P05177 1-516): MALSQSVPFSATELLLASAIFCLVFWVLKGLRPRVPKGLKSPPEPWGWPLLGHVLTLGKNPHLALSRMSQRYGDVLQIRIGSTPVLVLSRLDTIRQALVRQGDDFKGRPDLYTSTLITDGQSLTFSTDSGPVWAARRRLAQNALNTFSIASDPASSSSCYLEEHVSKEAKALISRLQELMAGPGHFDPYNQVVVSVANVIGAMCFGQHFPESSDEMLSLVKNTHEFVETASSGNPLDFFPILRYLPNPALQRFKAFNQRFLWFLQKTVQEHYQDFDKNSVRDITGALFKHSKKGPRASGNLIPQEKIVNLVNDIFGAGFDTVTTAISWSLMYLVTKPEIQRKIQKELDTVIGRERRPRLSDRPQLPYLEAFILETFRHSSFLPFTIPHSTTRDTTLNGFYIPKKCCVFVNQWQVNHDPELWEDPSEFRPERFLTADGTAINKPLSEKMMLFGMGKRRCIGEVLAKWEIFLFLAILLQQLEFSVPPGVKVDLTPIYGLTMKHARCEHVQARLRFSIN
Description: as §16

CYP2D6 = biological target: T4, CYP2D6 (Homo sapiens, UniProt P10635); experiment: CYP450 inhibition in human liver microsomes, CYP2D6; format: in vitro ADME
T4 construct: tissue Corning (USA); host or cells: mixed human liver microsomes
T4 sequence (P10635 whole entry): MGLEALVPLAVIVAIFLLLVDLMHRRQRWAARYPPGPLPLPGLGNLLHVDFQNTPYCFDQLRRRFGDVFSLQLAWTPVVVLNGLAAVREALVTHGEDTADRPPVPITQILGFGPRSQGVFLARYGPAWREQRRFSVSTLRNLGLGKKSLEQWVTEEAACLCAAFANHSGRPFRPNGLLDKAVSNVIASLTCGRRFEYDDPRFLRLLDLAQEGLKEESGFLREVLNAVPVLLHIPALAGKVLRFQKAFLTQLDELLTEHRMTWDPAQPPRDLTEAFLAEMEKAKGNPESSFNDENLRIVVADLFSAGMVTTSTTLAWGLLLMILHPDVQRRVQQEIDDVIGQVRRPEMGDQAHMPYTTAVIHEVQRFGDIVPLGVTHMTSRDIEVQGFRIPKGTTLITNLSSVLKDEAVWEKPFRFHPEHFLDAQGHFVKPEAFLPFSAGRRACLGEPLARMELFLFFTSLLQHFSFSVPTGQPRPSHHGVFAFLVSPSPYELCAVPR
Description: as §16

CYP2C9 = biological target: T5, CYP2C9 (Homo sapiens, UniProt P11712); experiment: CYP450 inhibition in human liver microsomes, CYP2C9; format: in vitro ADME
T5 construct: tissue Corning (USA); host or cells: mixed human liver microsomes
T5 sequence (P11712 whole entry): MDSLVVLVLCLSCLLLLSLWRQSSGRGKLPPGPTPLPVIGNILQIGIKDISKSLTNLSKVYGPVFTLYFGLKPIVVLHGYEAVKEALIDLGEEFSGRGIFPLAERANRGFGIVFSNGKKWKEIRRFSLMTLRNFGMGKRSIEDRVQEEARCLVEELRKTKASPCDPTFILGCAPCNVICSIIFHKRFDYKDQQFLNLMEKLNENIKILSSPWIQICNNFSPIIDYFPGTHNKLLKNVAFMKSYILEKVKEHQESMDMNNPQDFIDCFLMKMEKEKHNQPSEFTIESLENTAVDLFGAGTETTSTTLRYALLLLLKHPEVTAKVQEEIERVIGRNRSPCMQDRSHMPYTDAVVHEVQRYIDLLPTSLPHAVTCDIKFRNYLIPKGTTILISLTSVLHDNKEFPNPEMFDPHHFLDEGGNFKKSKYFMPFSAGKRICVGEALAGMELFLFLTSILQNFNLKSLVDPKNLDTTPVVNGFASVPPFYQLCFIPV
Description: as §16

CYP3A4 = biological target: T6, CYP3A4 (Homo sapiens, UniProt P08684); experiment: CYP450 inhibition in human liver microsomes, CYP3A4; format: in vitro ADME
T6 construct: tissue Corning (USA); host or cells: mixed human liver microsomes
T6 sequence (P08684 whole entry): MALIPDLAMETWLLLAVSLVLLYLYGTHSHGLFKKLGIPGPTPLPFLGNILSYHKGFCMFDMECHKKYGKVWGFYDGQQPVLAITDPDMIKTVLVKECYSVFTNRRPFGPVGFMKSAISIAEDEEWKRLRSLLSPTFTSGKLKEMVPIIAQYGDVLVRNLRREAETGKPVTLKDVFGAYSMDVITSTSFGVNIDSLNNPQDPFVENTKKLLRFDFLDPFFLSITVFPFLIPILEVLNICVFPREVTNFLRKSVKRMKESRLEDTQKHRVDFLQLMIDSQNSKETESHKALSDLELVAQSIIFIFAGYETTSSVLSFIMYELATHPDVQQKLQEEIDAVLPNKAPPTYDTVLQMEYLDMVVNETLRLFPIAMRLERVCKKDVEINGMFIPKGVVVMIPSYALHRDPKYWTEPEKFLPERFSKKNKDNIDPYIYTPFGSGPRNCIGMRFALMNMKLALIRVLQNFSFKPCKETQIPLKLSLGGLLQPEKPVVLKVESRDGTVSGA
Description: as §16

| Compound | IC50 (human IRAK4) [µM] | Inhibition rate of IL-6 [1] [%] | Inhibition rate of TNF-α [2] [%] | half-life at 1 μM [3] [h] | Stability test in liver microsomes t1/2, Mouse [4] | Stability test in liver microsomes t1/2, Human [5] | IC50 (CYP2C19) [µM] | IC50 (CYP1A2) [µM] | IC50 (CYP2D6) [µM] | IC50 (CYP2C9) [µM] | IC50 (CYP3A4) [µM] |
| --- | --- | --- | --- | --- | --- | --- | --- | --- | --- | --- | --- |
| COc1cc2nn([C@H]3C[C@H](C(C)(C)O)C3)cc2cc1NC(=O)c1cccc(C(F)F)n1 [MY-004-115] | 0.002 | 93.35 | 89.59 |  |  |  |  |  |  |  |  |
| CC(C)(O)[C@H]1C[C@H](n2cc3cc(NC(=O)c4cccc(C(F)(F)F)n4)c(-n4cccn4)cc3n2)C1 [MY-004-144] | 0.0044 |  |  | 11.4 | ∞ | ∞ |  |  |  |  |  |
| CC(C)(O)CCn1cc2cc(NC(=O)c3cccc(C(F)(F)F)n3)c(C(C)(C)O)cc2n1 [MYA, reference compound] |  |  |  |  |  |  | 23.5 | 2.91 | > 30 | 19.1 | > 30 |
